From patent publication US20230149338A1, “DIAGNOSIS AND TREATMENT OF ADDICTION” (The Regents of the University of California, priority 2020, published 2023)
Entries after “also recorded” stand apart in the source; their conditions may differ.

Legend:
Format in all cases: in vivo, rat
[1] = system: microbiome; assay: 16S RNA sequencing of feces: alpha diversity and phyla; settings: post-treatment
Method: (§1) At each time point, approximately two fecal pellets were harvested and put directly into a cryovial, which was placed on powered dry ice. The pellets were then stored at −80° C. until processing for sequencing. At the time of DNA extraction, feces were thawed and extracted with the Qiagen DNeasy powersoil kit. The samples are then amplified by PCR in triplicate and then pooled. The 16S V4 gene was amplified using universal primers ([…]). Each sample was normalized to 240 ng per sample and purified. After purification, the A260/A280 ratio of the final pool was recorded to ensure purity, with a tolerance range of 1.8-2.0. The barcoded amplicons from all of the samples were normalized, pooled to construct the sequencing library, and sequenced using an Illumina MiSeq sequencer. The sequencing primers were the following: […]
(§2) After sequencing, the raw files were prepared, filtered for quality, and demultiplexed. Operational taxonomic units (OTUs) were selected using open-reference OUT picking based on 97% sequence similarity to the Greengenes database. Taxonomy assignment and rarefaction were performed using Qiita with 15,000 reads per sample (Gonzalez et al. 2018). The alpha diversity was measured using both the Shannon diversity index and Chao1 index and compared between baseline and treatment conditions. […]

[2] = system: Fos+ neurons; assay: Fos immunohistochemistry, quantification of Fos+ neuronal ensembles
Method: Two hours later, the rats were injected with either saline (OXY and OXY+ABX groups) or 1 mg/kg naloxone (WD, WD+ABX, and SAL groups) to maintain intoxication or precipitate withdrawal, respectively. Brains were collected 90 min after the injection of naloxone or saline to produce both intoxicated and withdrawal groups. The rats were deeply anesthetized and perfused with 100 mL of phosphate-buffered saline (PBS) followed by 100 mL of 4% paraformaldehyde (PFA). Brains were postfixed in 4% PFA overnight and transferred to 30% sucrose in a PBS/0.1% azide solution at 4° C. for 2 days. Brains were frozen in powdered dry ice for 15-30 s and then sectioned coronally at 40 μm thickness throughout the brain using a cryostat. Representative sections were quantified from the following regions at the following coordinates according to the (Paxinos 2007) rat brain atlas: PVT (bregma −3.36), LHb (bregma −3.36), BLA (bregma −3.12), CeA (bregma −3.12), PAG (bregma −5.76), anterior agranular insula bregma (+3.00), BNST (bregma 0.00), and LC (bregma −9.16).
The sections were washed in PBS for 10 min three times and then incubated in 1% H2O2/PBS for 20 min to quench endogenous peroxidase activity. The sections were then rinsed for 10 min three times in PBS and incubated in blocking solution (PBS+0.3% TritonX-100, 1 mg/mL bovine serum albumin, and 5% normal donkey serum) for 1 h. The sections were then incubated for 24 h at room temperature with rabbit monoclonal anti-Fos antibody (Cell Signaling Technologies, catalog no. 2250, RRID: AB_2247211) diluted 1:1000 in PBS/0.5% Tween-20 and 5% normal donkey serum. Following incubation with the primary antibody, the sections were washed for 10 min three times in PBS and incubated for 2 h in undiluted rabbit ImmPress horseradish peroxidase reagent (Vector Laboratories, catalog no. MP-7451, RRID: 2631198).
The sections were then washed in PBS for 10 min three times and then developed for 6 min in Vector peroxidase 3,3′-diaminobenzidine (DAB) substrate (Vector Laboratories, catalog no. SK-4100, RRID: 2336382) enhanced with nickel chloride. Following rinses in PBS for 10 min three times, the sections were mounted on Fisher Super Frost Plus slides, air dried, and coverslipped with PVA-DABCO (Sigma Aldrich, catalog no. 10981). Following coverslipping, images were acquired using a Keyence BZX700 fluorescent microscope and analyzed using Fiji software.
Quantitative analysis to obtain unbiased estimates of the total number of Fos+positive cell bodies was performed using Fiji software with the Analyze Particles module (Schindelin et al. 2012). Slides were imaged on a Keyence BZX700 slide scanner and stitched at 2[…] magnification. Three sections were bilaterally analyzed for each rat and then averaged per animal (counted as n=1). A total of 4-6 animals of each sex per group were analyzed. Cell numbers were normalized to the area of the region of interest.

[3] = system: Sprague-Dawley rats; assay: Withdrawal score after naloxone-precipitated withdrawal
Method: (§3) The rats were subjected to microbiome depletion using a cocktail of non-absorbable antibiotics in their drinking water. Control rats were given regular drinking water. […] Withdrawal was precipitated at the end of the injection paradigm with a subcutaneous injection of naloxone (1 mg/kg) in the saline (SAL) group, withdrawal (WD) group, and antibiotic-treated withdrawal (WD+ABX) group. For the intoxication state, the rats were given a saline injection at the same time as the naloxone group. The OXY group included animals that were not treated with antibiotics in the intoxicated state, and the OXY+ABX group included animals that were treated with antibiotics in the intoxicated state. […] The rats were sacrificed and perfused 90 min after the naloxone injection in the WD, WD+ABX, and SAL groups and after 90 min following the saline injection (matched with the naloxone injection time point) in the OXY and OXY+ABX groups. Brains were then cryopreserved and stained for Fos expression.
To precipitate withdrawal, the rats were subcutaneously injected with naloxone and then placed in a Plexiglas observation chamber.
Withdrawal symptoms were categorized using a scale that was modified from (Gellert et al. 1978) and (Cicero et al. 2002). Graded signs of withdrawal were scored as the following: wet dog shakes (1 or 2 shakes=2; 3 or 4 shakes=3; […] shakes=4) and escape attempts (2-4 attempts=1; 5-9 attempts=2; ≥10 attempts=3). The following behaviors were measured per instance: abnormal posture/writhing, teeth chattering, ptosis (drooping eyelids), diarrhea, profuse salivation, urination, swallowing movements, and chromodacyorrhea (red tears). The total withdrawal score was calculated as the sum of all of the individual withdrawal scores. Immediately after withdrawal testing, all of the rats were returned to standard cages and given unrestricted access to food and water.

[4] = system: Bacteroidetes; assay: 16S RNA sequencing of feces: Bacteroidetes abundance
Method: as §1, §2

[5] = system: Firmicutes; assay: 16S RNA sequencing of feces: Firmicutes abundance
Method: as §1, §2

[6] = system: Sprague-Dawley rats; assay: Mechanical nociceptive von Frey test, passive oxycodone injection model
Method: as §3
Mechanical nociception, reflected by hindpaw withdrawal thresholds, was determined by an observer who was blind to the experimental groups using von Frey filaments that ranged from 3.63 to 281.838 g as previously reported (Dixon 1965, Kononoff et al. 2018). A test session began after 10 min of habituation to the testing environment immediately following the subcutaneous injection of naloxone (WD, WD+ABX, and SAL groups) or saline (OXY and OXY+ABX groups). […] The 50% paw withdrawal threshold was determined by the formula Xf+kδ, where Xf is the last von Frey filament applied, k is the Dixon value that corresponded to the response pattern, and […] is the mean difference between stimuli. Once the threshold was determined for the left hindpaw, the same testing procedure was repeated for the right hindpaw after 5 min. Paw withdrawal thresholds were recorded at baseline, during intoxication, and during precipitated withdrawal.

[7] = oxycodone + naloxone withdrawal vs SAL and OXY groups
[8] = oxycodone + naloxone withdrawal vs SAL group
[9] = withdrawal compared with the control group

In the case of `COc1ccc2c3c1O[C@H]1C(=O)CC[C@@]4(O)[C@@H](C2)N(C)CC[C@]314` [oxycodone, Oxycodone], the “alpha diversity, Chao1 test, OXY vs SAL group” value [1] was “no difference in alpha diversity”, the “number of Fos+ neurons, BLA, WD group” value ([2]; oxycodone + naloxone withdrawal vs OXY and SAL groups) was “significant decrease in Fos+ neurons compared with the OXY group but no difference from the SAL group” and the “number of Fos+ neurons, BNST, WD group” value [2, 7] was “significant increase in the number of Fos+ neurons; also recorded: significant decrease in the number of Fos+neurons compared with the WD and WD+ABX groups”. The “number of Fos+ neurons, LHb, WD group” value [2, 7] was “significant increase in the number of Fos+neurons”, the “number of Fos+ neurons, PAG, WD group” value [2, 7] was “significant increase in Fos+ neurons” and the “number of Fos+ neurons, PVT, WD group” value [2, 7] was “significant increase in Fos+ positive neurons; also recorded: significant decrease in the number of Fos+ neurons in the SAL group compared with the WD and WD+ABX groups”. For the same compound, the “number of Fos+ neurons, anterior insula, WD group” value [2, 7] was “significant increase in the number of Fos+ neurons”, the “number of Fos+ neurons, CeA, WD group” value [2, 8] was “significant difference between the SAL and WD groups” and the “number of Fos+ neurons, LC, WD group” value [2, 8] was “significant difference between the SAL group and the WD and WD+ABX groups”. The “increase in the number of Fos+ neurons, LC” value [2, 9] was 475%, the “increase in the number of Fos+ neurons, LHb” value [2, 9] was 712% and the “increase in the number of Fos+ neurons, PVT” value [2, 9] was 289%. For the same compound, the “increase in the number of Fos+ neurons, lateral BNST” value ([2]; withdrawal, antibiotic-treated animals compared with the control group) was 1272%, the “increase in withdrawal signs” value ([3]; WD and WD+ABX groups) was 1420% and the “withdrawal score, intoxicated vs saline animals” value ([3]; oxycodone intoxication) was “No significant difference in withdrawal scores”. The “total withdrawal score during withdrawal” value ([3]; oxycodone-dependent rats, naloxone-precipitated withdrawal, vs saline and intoxicated animals) was “significantly higher withdrawal scores”, the “change in Bacteroidetes after treatment” value ([4]; OXY group or OXY+ABX group compared with the matched SAL group) was −19.01% and the “Bacteroidetes at the phylum level, group comparison” value ([4]; post-treatment, OXY+ABX vs water and OXY groups, OXY vs SAL) was “No difference in Bacteroidetes”. The “change in Firmicutes after treatment” value ([5]; OXY group or OXY+ABX group compared with the matched saline group) was 38.5%, the “Firmicutes at the phylum level, group comparison” value ([5]; post-treatment, OXY+ABX vs SAL and OXY groups, OXY vs SAL) was “No difference in Firmicutes” and the “decrease in pain thresholds” value ([6]; WD and WD+ABX groups, naloxone-precipitated withdrawal) was 64%. For the same compound, the “von Frey pain threshold during oxycodone intoxication” value ([6]; oxycodone 2 mg/kg s.c. every 12 h, intoxicated animals vs saline, withdrawal groups and baseline) was “significantly higher von Frey scores; also recorded: higher pain thresholds” and the “von Frey pain threshold during withdrawal” value ([6]; oxycodone-dependent rats, naloxone 1 mg/kg precipitated withdrawal, vs saline, intoxication, baseline) was “significantly lower von Frey scores; also recorded: lower pain thresholds”.
